In patent publication US8569292B2, “Cyclic inhibitors of 11β-hydroxysteroid dehydrogenase 1” (Vitae Pharmaceuticals, Inc., priority 2008, dated 2013):

Key:
CYP2C9 = molecular target: T1, CYP2C9 (Homo sapiens, UniProt P11712); experiment: Biological Test Example 9: CYP2C9 inhibition (Invitrogen kit, fluorogenic OOMR); assay type: in vitro ADME
T1 construct: purchased Invitrogen 2859; host or cells: insect cells infected with baculovirus (microsomes)

11β-HSD1 = 11β-HSD1 (Homo sapiens, UniProt P28845); experiment: biochemical; conditions: for inhibition at 0.1 µM: read-out: Average % inhibition at 100 nM
[1] = Biological Test Example 1 IC50 (nM)
[2] = IC50 Range, Biological Test Example 1

T1 sequence (P11712 whole entry): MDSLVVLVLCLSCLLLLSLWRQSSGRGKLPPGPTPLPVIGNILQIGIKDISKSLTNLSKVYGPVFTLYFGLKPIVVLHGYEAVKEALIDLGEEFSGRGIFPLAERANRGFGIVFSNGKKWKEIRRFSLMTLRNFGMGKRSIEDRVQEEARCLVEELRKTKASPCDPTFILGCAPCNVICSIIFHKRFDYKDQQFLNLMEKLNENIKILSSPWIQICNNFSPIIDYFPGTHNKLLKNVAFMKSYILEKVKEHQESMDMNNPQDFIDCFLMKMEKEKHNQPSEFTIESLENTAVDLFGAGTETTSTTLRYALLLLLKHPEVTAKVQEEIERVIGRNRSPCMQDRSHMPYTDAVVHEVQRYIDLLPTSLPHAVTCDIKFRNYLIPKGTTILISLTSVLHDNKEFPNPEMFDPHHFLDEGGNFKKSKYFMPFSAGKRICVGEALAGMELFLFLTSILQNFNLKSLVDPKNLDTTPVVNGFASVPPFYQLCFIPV
Chain of 11β-HSD1 (P28845 whole entry): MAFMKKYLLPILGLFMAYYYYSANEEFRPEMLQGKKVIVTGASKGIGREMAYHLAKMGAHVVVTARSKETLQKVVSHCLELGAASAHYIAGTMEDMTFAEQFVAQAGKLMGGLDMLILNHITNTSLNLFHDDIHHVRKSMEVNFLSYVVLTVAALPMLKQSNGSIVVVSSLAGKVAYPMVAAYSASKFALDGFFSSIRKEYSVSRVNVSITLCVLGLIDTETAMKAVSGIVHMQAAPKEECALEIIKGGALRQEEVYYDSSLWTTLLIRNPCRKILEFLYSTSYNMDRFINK

Row | SMILES | IC50 (CYP2C9) [µM] | inhibition at 0.1 µM (11β-HSD1) [%] | IC50 (11β-HSD1; [1]) [nM] | IC50 (11β-HSD1; [2]) [nM]
1 | C[C@@H](c1ccc(-c2ccncc2)cc1)N1CC[C@](CCCO)(c2ccccc2)OC1=O [EXAMPLE 35, (R)-6-(3-hydroxypropyl)-6-phenyl-3-((S)-1-(4-(pyridin-4-yl)phenyl)ethyl)-1,3-oxazinan-2-one] | 2.2 |  |  | 
2 | C[C@@H](c1ccc(-c2cccnc2)cc1)N1CC[C@](CCCO)(c2ccccc2)OC1=O [EXAMPLE 36, (R)-6-(3-hydroxypropyl)-6-phenyl-3-((S)-1-(4-(pyridin-3-yl)phenyl)ethyl)-1,3-oxazinan-2-one] | 5.2 |  |  | 
3 | C[C@@H](c1ccc(-c2ccc[n+]([O-])c2)cc1)N1CC[C@](CCCO)(c2ccccc2)OC1=O [EXAMPLE 38, 3-(4-((S)-1-((R)-6-(3-hydroxypropyl)-2-oxo-6-phenyl-1,3-oxazinan-3-yl)ethyl)phenyl)pyridine 1-oxide] | > 30 |  |  | 
4 | COc1ccc(-c2ccc([C@H](C)N3CC[C@](CCCO)(c4ccccc4)OC3=O)cc2)cn1 [EXAMPLE 40, (R)-6-(3-hydroxypropyl)-3-((S)-1-(4-(6-methoxypyridin-3-yl)phenyl)ethyl)-6-phenyl-1,3-oxazinan-2-one] | 10 |  |  | 
5 | C[C@@H](c1ccc(-c2cncc(F)c2)cc1)N1CC[C@](CCCO)(c2ccccc2)OC1=O [EXAMPLE 49, (R)-3-((S)-1-(4-(5-fluoropyridin-3-yl)phenyl)ethyl)-6-(3-hydroxypropyl)-6-phenyl-1,3-oxazinan-2-one] | 8.4 |  |  | 
6 | C[C@@H](c1ccc(-c2cccnc2)cc1)N1CC[C@](CCNS(C)(=O)=O)(c2ccccc2)OC1=O [EXAMPLE 55, N-(2-((S)-2-oxo-6-phenyl-3-((S)-1-(4-(pyridin-3-yl)phenyl)ethyl)-1,3-oxazinan-6-yl)ethyl)methanesulfonamide] | 14.1 | 96.5 |  | 
7 | C[C@@H](c1ccc(-c2ccc(N)nc2)cc1)N1CC[C@](CCCO)(c2ccccc2)OC1=O [EXAMPLE 95, (R)-3-((S)-1-(4-(6-aminopyridin-3-yl)phenyl)ethyl)-6-(3-hydroxypropyl)-6-phenyl-1,3-oxazinan-2-one] | 2.4 |  |  | 
8 | Cc1cc(-c2ccc([C@H](C)N3CC[C@](CCN4CCCS4(=O)=O)(c4ccccc4)OC3=O)cc2)ccn1 [EXAMPLE 105, (S)-6-(2-(1,1-dioxo-isothiazolidin-2-yl)ethyl)-3-((S)-1-(4-(2-methylpyridin-4-yl)phenyl)ethyl)-6-phenyl-1,3-oxazinan-2-one] | 2.5 | 86.3 | 19.2 | < 100
9 | Cc1cc(-c2ccc([C@H](C)N3CC[C@](CCCN4CCCS4(=O)=O)(c4ccccc4)OC3=O)cc2)ccn1 [EXAMPLE 106, (R)-6-(3-(1,1-dioxo-isothiazolidin-2-yl)propyl)-3-((S)-1-(4-(2-methylpyridin-4-yl)phenyl)ethyl)-6-phenyl-1,3-oxazinan-2-one] | 9.5 | 79.6 | 22.7 | < 100
10 | C[C@@H](c1ccc(-c2ccc(F)cn2)cc1)N1CC[C@](CCCO)(c2ccccc2)OC1=O [EXAMPLE 112, (R)-3-((S)-1-(4-(5-fluoropyridin-2-yl)phenyl)ethyl)-6-(3-hydroxpropyl)-6-Phenyl-1,3-oxazinan-2-one] | 6.1 | 95.2 | 0.5 | < 100
11 | Cc1cc(-c2ccc([C@H](C)N3CC[C@](CCCO)(c4ccccc4)OC3=O)cc2)cc(C)n1 [EXAMPLE 133, (R)-3-((S)-1-(4-(2,6-dimethylpyridin-4-yl)phenyl)ethyl)-6-(3-hydroxypropyl)-6-phenyl-1,3-oxazinan-2-one] | > 30 |  |  | 
12 | Cc1ncc(-c2ccc([C@H](C)N3CC[C@](CCCO)(c4ccc(F)cc4)OC3=O)cc2)cn1 [EXAMPLE 137, (R)-6-(4-fluorophenyl)-6-(3-hydroxypropyl)-3-((S)-1-(4-(2-methylpyrimidin-5-yl)phenyl)ethyl)-1,3-oxazinan-2-one] | 18.4 |  |  | 
